Test results as given in a melting point compilation (Tetko et al.; mined from patent text by program, amines drawn as free bases though some values may be those of a salt).

| SMILES | melting point [°C] |
| --- | --- |
| Nc1ccc(Br)cc1C(O)c1ccccn1 (stereo not given) | 104 to 105 |
| CC(=O)N(C)Cc1cc2c(-c3ccccc3)c(CC(=O)Nc3ccc(Cl)cc3C(F)(F)F)c(=O)oc2cc1Cl | 199 to 201 |
| O=C(NCCCCCCOC(=O)N1CCC(OC(=O)Oc2ccc([N+](=O)[O-])cc2)CC1)Oc1ccc(Oc2ccccc2)cc1 | 93 to 94 |
| CC(SCc1cc2cc(C(F)(F)F)ccc2n1S(=O)(=O)c1ccccc1)C(=O)O (stereo not given) | 120 |
| OCCCC(c1ccccc1)C(O)(c1ccccc1)c1ccccc1 (stereo not given) | 120 to 122 |
| CC(C)c1nn(-c2ccc(C(F)(F)F)cn2)cc1COc1cc(CCC(=O)O)n(C)n1 | 141 to 142 |
| N#CCn1nc2n(c1=O)-c1ccc(Cl)nc1C(c1ccccc1Cl)=NC2 | 198 to 200 |
| CSc1nc2cc(-c3cccnc3)cc(N)n2n1 | 161 to 163 |
| CCc1cc2oc(=O)c([N+](=O)[O-])c(O)c2cc1CC | 115 to 117 |
| CCOc1cc2c(O)c(C(=O)O)cnc2nc1C | 259 to 261 |
| CCCOc1nc2ccccc2c2c1CNC2=O | 170 to 171 |
| CC(C)C(c1cnccc1C(F)(F)F)N(C)C(=O)Cc1ccccc1 (stereo not given) | 71.2 |
| COc1ccc(CNC(=O)c2c(-c3ccncc3)c(-c3ccc(F)cc3)nn2C)cc1 | 162 to 165 |
| COc1ccc(COc2ccc3c(c2)C(c2ccc(C(C)C)cc2)C(C)(C)O3)cc1 (stereo not given) | 124 to 126 |
| O=C(Cc1ccccc1)N[C@@H](Cc1ccc(OCCc2coc(-c3ccccc3)n2)cc1)C(=O)O | 146 to 151 |
| COC(=O)c1cccc(-c2nc(COc3ccc(CCl)cc3OC)c(C)o2)c1 | 125 to 126 |
| Cc1cccc(Nn2cnc(C)c2C)c1 | 144 |
| CC(=O)OC1CSC(Oc2ccc3nnn(C)c3c2)C(OC(C)=O)C1OC(C)=O (stereo not given) | 143 |
| COC(=O)CCSc1ncccc1C#N | 101 to 102 |
| CC(C)n1cc(-c2nc(C(N)=O)c(N)nc2-c2cccc(OC(F)(F)F)c2)ccc1=O | 266 |

| SMILES | melting point [°C] |
| --- | --- |
| COc1ccc2onc(Nc3ccncc3)c2c1 | 248 to 251 |
| CN1C(=O)C(c2cccc(Br)c2)(C2CCN(C(=O)c3ccccc3)CC2)N=C1N (stereo not given) | > 250 |
| O=c1[nH]c2cc(Cl)c(Cl)cc2n2ccnc12 | > 300 |
| CCOC(=O)c1cn2ccc(NC(=O)c3cc4cc(C(F)(F)F)ccc4n3Cc3cccc(F)c3)cc2n1 | 282 to 283 |
| CC(C)(C)C(=O)OCNc1nc(OCc2ccc(F)cc2)ncc1F | 134 to 135 |
| NC(=O)C(CCCCCCCCNC(=O)c1ccccc1O)CC(=O)O (stereo not given) | 123 to 125 |
| CCCCc1nc2c(N)nc3cccnc3c2n1CCNC(=O)C(N)CC(C)C (stereo not given) | 60 to 65 |
| CCOCc1nc2nccnc2c(=O)[nH]1 | 168 to 169 |
| CCOC(=O)CC[C@H](NC(=O)c1ccc([N+](=O)[O-])cc1Cl)C(=O)OCC | 95 to 96 |
| CN1CCC(O)(c2cccc3[nH]ccc23)CC1 | 205 to 206 |
| O=[N+]([O-])c1ccc2c(Br)cc3nc(O)c(O)nc3c2c1 | > 300 |
| CC1(C)C(=O)NC(=O)c2cc(NC(N)=O)ccc21 | 260 to 264 |
| Cc1nc2c(OCc3c(Cl)ccc(N(C)C(=O)CN)c3Cl)cccn2c1Br | 175 to 178 |
| COC(=O)C(Cc1ccccc1)Nc1nnc(N)s1 (stereo not given) | 186 to 189 |
| NC1c2ccccc2CC2CCCCC21 (stereo not given) | 37 to 39 |
| O=C(NC(=O)c1c(F)cccc1F)Nc1ccc(S(=O)(=O)C(F)(F)C(F)F)cc1F | 186 to 187 |
| COc1cc(C(O)Cc2c(C)cncc2C)nnc1OC (stereo not given) | 217 to 218 |
| COc1cc2ncc(C#N)c(Nc3cccc(N)c3)c2cc1OC | 222 to 228 |
| COc1cc(C(C)C)c2c(c1OC)S(=O)(=O)NC2=O | 210 to 212 |
| CCCCCCCCCCCCCCCCCCNC(=O)N1CCN(C(=O)c2ccc(CCl)cc2)CC1 | 68 to 70 |
